Consider one compound from PMC11647725, “Discovery of 4-(5-Membered)Heteroarylether-6-methylpicolinamide Negative Allosteric Modulators of Metabotropic Glutamate Receptor Subtype 5” (ACS Medicinal Chemistry Letters, 2024).

SMILES strings stand for the structures.

In data set [1] the target is Transporter, Dopamine (DAT) (Homo sapiens, UniProt Q01959). Nature of the data set: Lead Profiling Screen, Eurofins Panlabs. Particulars: hum, read-out: % inh at 10 μM. The format is binding.
Data set [2] addresses Nicotinic Acetylcholine α3β4 (Homo sapiens, UniProt P30926+P32297). Nature of the data set: Lead Profiling Screen, Eurofins Panlabs. It is filed as binding. Particulars: Nicotinic Acetylcholine α3β4, hum, read-out: % inh at 10 μM.
Data set [3] has as its system Glutamate, NMDA, Phencyclidine. Nature of the data set: Lead Profiling Screen, Eurofins Panlabs. The format is binding. The settings on record: rat. The text has this:
(§1) Nonetheless, as a non-aryl/heterobiaryl acetylene mGlu5 NAM with an encouraging in vivo rodent PK profile, we wished to further assess VU6043653 as a novel chemotype. Therefore, we compared metabolites in multiple species to better understand species differences in clearance and metabolism. […] Consistent with the high plasma clearance observed in dogs, high turnover was observed more so in dog hepatocytes than any other species tested (see the Supporting Information for additional details and results). To further evaluate our novel chemotype, the off-target and safety/toxicity profiles for this compound were further investigated.
(§2) Table S2. Lead Profiling Screen – Eurofins Panlabs for VU6043653.
(§3) Assay Name Species % inh at 10 μM […]

Data set [4] deals with GABAA, Muscimol, Central. Nature of the data set: Lead Profiling Screen, Eurofins Panlabs. It is filed as binding. The settings on record: rat.
Excerpt: as §1, §2, §3

The subject of data set [5] is Glutamate, NMDA, Agonism. Nature of the data set: Lead Profiling Screen, Eurofins Panlabs. It is filed as binding. Particulars: rat.
Excerpt: as §1, §2, §3

Data set [6] concerns the target Calcium Channel N-Type (Rattus norvegicus, UniProt Q02294). Nature of the data set: Lead Profiling Screen, Eurofins Panlabs. The format is binding. The settings on record: read-out: % inh at 10 μM.
Excerpt: as §1, §2, §3

For data set [7], the target named is Epidermal Growth Factor (EGF) (Homo sapiens, UniProt P00533). Nature of the data set: Lead Profiling Screen, Eurofins Panlabs. It is filed as binding. The settings on record: hum, read-out: % inh at 10 μM.
Excerpt: as §1, §2, §3

Data set [8] deals with Calcium Channel L-Type, Benzothiazepine. Nature of the data set: Lead Profiling Screen, Eurofins Panlabs. It is filed as binding. The settings on record: rat.
Excerpt: as §1, §2, §3

The target of data set [9] is Glutamate, NMDA, Glycine (Rattus norvegicus, UniProt P35439). Nature of the data set: Lead Profiling Screen, Eurofins Panlabs. It is filed as binding. Particulars: read-out: % inh at 10 μM.
Excerpt: as §1, §2, §3

A short description of data set [10]: Binding in plasma from human (equilibrium dialysis). It is filed as in vitro ADME. Particulars: human, plasma, read-out: Human fu,plasma. Here is the method:
Binding in plasma from rat and human.
Determination of compounds’ fraction unbound (f u) in plasma from rat and human was conducted in vitro via equilibrium dialysis using HTDialysis membrane plates. Dialysis membranes (four paired strips per HTD assay) were hydrated as described by the manufacturer and inserted into the HTD plate, which was assembled and prepared for sample addition by the dispensing of blank buffer (DPBS, 100 µL/well) into the ‘top half’ of each membrane-split well. Each compound was diluted into plasma from each species (5 µM final concentration), which was aliquoted in triplicate to the ‘bottom half’ of the prepared HTD plate wells. The HTD plate was sealed and incubated for 6 hours at 37 °C. Following incubation, each well (both top and bottom halves) were transferred (20 µL) to the corresponding wells of a 96-shallow-well (V-bottom) plate. The daughter plates were then matrix-matched (buffer side wells received equal volume of plasma, and plasma side wells received equal volume of buffer), and extraction solution (120 µL; acetonitrile containing 50 nM carbamazepine as IS) was added to all wells of both daughter plates to precipitate protein and extract test article. The plates were then sealed and centrifuged (3500 rcf) for 10 minutes at ambient temperature. Supernatant (60 µL) from each well of the daughter plates was then transferred to the corresponding wells of new daughter plates (96-shallow-well, V bottom) containing water (Milli-Q, 60 µL/well), and the plates were sealed in preparation for LC-MS/MS analysis (see below). fu was calculated as (analyte to IS MS peak area ratio from Trans-buffer side) / (analyte to IS MS peak area ratio from Cis-plasma side). Mean values for each species were calculated from 3 replicates. […]
Mean values for each species were calculated from 3 replicates. […]
After 5 minutes (pre-incubation), reactions were initiated by addition of nicotinamide adenine dinucleotide phosphate (NADPH, 1 mM final concentration). At selected time intervals (0, 3, 7, 15, 25, and 45 minutes) post-addition of NADPH, aliquots (50 µL) were taken and placed into a 96-shallow-well plate containing ice cold acetonitrile (150 µL) with carbamazepine (IS, 50 nM). The plates were then centrifuged (3000 rcf at 4 °C) for 10 minutes. The supernatants were transferred to a new 96-shallow-well daughter plate and diluted (1:1 v/v) with water (Milli-Q filtered). The plates were then sealed in preparation for LC-MS/MS analysis (see below).

Data set [11] addresses Sigma σ1 (Homo sapiens, UniProt Q99720). Nature of the data set: Lead Profiling Screen, Eurofins Panlabs. The format is binding. Particulars: Sigma σ1, hum, read-out: % inh at 10 μM.

Calcium Channel N-Type, sequence (Q02294 whole entry): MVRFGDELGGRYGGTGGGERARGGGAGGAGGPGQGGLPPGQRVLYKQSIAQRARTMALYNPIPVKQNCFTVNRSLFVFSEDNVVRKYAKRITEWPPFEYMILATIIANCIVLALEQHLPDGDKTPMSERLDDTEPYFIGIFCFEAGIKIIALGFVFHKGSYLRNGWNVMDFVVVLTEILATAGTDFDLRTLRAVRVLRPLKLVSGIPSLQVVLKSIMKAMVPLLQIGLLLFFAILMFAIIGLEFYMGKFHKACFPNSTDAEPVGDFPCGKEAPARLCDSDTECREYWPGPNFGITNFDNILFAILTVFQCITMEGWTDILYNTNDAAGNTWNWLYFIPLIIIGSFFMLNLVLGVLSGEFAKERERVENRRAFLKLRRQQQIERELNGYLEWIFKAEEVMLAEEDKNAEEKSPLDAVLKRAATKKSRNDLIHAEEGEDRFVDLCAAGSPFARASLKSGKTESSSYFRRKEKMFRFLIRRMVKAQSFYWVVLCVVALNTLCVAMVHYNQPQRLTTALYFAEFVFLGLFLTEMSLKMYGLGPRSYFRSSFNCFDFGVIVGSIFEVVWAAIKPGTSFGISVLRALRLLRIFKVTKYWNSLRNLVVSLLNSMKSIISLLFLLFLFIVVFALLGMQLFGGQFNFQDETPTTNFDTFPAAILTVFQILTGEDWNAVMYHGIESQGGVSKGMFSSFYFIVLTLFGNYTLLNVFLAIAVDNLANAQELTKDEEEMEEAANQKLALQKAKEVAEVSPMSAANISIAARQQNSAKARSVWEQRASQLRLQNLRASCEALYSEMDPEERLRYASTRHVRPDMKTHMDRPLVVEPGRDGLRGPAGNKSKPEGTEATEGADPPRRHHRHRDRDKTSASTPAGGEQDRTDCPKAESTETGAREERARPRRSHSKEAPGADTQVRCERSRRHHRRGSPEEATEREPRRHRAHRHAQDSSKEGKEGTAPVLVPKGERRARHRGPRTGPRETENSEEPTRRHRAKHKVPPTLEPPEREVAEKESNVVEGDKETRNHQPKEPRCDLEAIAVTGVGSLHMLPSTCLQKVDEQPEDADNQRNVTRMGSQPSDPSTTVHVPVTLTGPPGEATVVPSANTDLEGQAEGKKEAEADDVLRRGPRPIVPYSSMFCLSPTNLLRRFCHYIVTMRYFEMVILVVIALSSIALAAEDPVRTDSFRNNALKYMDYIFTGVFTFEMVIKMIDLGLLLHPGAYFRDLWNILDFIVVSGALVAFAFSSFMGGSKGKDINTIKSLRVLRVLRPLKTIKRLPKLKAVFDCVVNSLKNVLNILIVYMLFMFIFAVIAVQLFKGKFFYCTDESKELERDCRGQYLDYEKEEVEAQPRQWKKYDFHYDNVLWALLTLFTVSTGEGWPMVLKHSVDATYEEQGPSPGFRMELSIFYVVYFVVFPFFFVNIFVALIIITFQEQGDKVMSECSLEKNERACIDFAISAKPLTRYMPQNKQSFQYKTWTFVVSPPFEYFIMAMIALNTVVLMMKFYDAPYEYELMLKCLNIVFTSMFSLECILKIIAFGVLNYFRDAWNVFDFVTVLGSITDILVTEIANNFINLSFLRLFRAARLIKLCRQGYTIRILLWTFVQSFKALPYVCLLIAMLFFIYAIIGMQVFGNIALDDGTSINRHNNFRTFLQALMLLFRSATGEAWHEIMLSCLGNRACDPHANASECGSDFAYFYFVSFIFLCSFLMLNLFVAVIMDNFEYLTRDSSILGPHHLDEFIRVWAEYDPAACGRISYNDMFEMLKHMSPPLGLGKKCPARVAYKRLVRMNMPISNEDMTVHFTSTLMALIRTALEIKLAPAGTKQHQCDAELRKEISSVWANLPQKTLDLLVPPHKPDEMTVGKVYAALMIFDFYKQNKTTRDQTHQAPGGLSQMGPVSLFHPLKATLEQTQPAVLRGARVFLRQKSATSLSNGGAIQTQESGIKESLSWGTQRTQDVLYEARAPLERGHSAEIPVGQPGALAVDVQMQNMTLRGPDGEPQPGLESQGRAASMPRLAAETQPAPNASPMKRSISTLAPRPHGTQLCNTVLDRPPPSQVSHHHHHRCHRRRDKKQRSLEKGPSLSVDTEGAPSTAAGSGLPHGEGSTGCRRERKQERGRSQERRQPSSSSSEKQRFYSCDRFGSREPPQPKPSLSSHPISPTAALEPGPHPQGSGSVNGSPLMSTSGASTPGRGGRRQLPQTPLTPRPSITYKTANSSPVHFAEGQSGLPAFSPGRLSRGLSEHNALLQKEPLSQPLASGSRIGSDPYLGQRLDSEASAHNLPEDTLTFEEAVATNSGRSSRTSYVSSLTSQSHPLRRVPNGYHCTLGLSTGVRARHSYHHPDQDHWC
Transporter, Dopamine (DAT), sequence (Q01959 whole entry): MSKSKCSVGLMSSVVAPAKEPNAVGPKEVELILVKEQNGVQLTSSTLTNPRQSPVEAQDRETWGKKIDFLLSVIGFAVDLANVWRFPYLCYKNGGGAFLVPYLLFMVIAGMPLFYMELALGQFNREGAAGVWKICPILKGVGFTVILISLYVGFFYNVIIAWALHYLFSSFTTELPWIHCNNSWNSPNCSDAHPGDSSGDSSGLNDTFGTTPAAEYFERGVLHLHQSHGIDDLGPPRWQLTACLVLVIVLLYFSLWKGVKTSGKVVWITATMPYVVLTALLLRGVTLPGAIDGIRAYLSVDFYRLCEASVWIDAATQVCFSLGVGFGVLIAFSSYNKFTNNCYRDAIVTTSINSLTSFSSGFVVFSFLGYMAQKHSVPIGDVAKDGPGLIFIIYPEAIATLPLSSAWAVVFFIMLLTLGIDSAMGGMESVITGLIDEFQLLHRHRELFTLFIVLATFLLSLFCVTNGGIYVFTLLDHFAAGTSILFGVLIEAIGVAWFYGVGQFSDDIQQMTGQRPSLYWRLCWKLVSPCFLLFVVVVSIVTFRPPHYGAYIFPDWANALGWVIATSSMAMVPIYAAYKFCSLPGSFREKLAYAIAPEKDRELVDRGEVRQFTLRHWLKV
Epidermal Growth Factor (EGF), sequence (P00533 25-1210): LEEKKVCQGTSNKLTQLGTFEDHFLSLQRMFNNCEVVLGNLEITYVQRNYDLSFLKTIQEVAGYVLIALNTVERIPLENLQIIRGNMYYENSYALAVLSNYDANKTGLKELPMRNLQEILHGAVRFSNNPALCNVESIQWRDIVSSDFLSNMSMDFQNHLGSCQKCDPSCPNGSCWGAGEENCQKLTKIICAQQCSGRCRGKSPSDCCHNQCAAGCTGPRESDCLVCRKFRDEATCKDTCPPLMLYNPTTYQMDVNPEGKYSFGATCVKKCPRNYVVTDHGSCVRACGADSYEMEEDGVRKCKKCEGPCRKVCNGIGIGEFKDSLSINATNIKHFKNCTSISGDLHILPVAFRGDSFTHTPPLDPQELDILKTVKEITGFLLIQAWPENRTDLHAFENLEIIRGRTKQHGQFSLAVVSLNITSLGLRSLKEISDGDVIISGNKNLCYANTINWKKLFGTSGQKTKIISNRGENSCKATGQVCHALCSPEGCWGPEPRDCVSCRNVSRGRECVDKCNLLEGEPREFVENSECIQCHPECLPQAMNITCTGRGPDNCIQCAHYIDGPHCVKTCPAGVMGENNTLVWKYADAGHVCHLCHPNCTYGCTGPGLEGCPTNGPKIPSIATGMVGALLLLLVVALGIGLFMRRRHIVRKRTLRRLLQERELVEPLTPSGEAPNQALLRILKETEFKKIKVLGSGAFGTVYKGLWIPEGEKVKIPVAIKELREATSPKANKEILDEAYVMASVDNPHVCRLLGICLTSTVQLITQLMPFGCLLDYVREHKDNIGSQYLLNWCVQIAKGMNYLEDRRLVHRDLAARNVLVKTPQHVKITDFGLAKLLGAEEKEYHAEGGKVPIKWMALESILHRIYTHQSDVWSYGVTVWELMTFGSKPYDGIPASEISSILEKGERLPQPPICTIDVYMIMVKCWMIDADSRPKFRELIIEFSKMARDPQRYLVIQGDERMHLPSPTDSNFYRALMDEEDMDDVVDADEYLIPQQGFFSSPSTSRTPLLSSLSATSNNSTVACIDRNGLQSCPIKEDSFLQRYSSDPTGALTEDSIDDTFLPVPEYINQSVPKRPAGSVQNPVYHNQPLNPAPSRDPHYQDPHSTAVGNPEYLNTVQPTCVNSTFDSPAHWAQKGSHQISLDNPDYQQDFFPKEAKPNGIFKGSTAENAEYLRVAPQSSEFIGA
Nicotinic Acetylcholine α3β4, sequence (P32297 32-505): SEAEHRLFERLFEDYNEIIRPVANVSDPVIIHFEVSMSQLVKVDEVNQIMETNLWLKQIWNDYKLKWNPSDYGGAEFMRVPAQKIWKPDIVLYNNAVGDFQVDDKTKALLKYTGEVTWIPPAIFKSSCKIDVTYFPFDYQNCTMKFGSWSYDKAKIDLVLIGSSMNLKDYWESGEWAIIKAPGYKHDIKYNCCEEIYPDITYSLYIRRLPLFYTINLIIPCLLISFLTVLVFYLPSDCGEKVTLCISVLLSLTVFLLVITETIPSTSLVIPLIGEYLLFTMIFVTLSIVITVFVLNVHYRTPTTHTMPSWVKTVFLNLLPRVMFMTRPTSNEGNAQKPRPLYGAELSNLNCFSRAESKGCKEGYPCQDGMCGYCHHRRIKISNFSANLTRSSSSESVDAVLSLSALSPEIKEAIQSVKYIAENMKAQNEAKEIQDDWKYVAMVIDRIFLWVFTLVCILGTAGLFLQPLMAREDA
Nicotinic Acetylcholine α3β4, sequence (P30926 22-498): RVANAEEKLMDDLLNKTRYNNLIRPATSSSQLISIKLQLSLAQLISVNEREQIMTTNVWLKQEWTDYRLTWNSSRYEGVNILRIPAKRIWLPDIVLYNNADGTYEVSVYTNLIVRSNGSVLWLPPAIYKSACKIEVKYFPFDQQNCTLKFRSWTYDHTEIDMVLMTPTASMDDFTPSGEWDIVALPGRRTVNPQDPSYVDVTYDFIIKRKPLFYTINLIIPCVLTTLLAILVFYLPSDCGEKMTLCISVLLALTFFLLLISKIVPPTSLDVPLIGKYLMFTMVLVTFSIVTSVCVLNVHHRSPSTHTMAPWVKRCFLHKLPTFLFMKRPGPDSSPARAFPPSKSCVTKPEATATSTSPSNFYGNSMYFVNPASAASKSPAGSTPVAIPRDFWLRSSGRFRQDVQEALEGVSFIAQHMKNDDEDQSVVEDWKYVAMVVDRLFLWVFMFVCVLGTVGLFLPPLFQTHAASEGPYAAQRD

Consider `Cc1cc(Oc2cnn(C)c2)cc(C(=O)Nc2ccc(F)cn2)n1` [22iA], for which the inhibition at 10 µM is 25% in [1]; 6% in [2]; -8% in data set [6]; -3% in [7]; -18% in data set [9]; 0% in data set [11]. Also, the “% inh at 10 μM” value is recorded as -4% in data set [3], -5% in [4], 3% in data set [5] and 22% in [8]. For the same compound, in data set [10], the fraction unbound at 6 h, 5 µM stood at 0.059.
